CC(=O)N[C@@H](Cc1ccc(O)cc1)C(=O)O
solubility (mole fraction)
Details | 283.15 K | 288.15 K | 293.15 K | 298.15 K | 303.15 K | 308.15 K | 313.15 K | 318.15 K | 323.15 K
in acetone | 0.106 | 0.116 | 0.132 | 0.136 | 0.145 | 0.152 | 0.166 | 0.181 | 0.197
in acetonitrile | 0.00301 | 0.00353 | 0.00436 | 0.00526 | 0.0064 | 0.00795 | 0.00988 | 0.0129 | 0.017
in dimethyl carbonate | 0.00114 | 0.00122 | 0.00127 | 0.0015 | 0.00224 | 0.00267 | 0.00307 | 0.00373 | 0.00404
in ethyl acetate | 0.00383 | 0.00412 | 0.00477 | 0.00507 | 0.00577 | 0.00655 | 0.0073 | 0.00849 | 0.0102
in isobutanol | 0.0349 | 0.0378 | 0.0468 | 0.0522 | 0.06 | 0.0683 | 0.0777 | 0.0853 | 0.0973
in isopentanol | 0.0363 | 0.0394 | 0.0487 | 0.05 | 0.0568 | 0.0634 | 0.0635 | 0.0749 | 0.0807
in isopropanol | 0.0772 | 0.0942 | 0.105 | 0.111 | 0.122 | 0.134 | 0.148 | 0.159 | 0.171
in methyl acetate | 0.00475 | 0.00537 | 0.00621 | 0.00723 | 0.0085 | 0.00995 | 0.0115 | 0.0139 | 0.0162
in n-butanol | 0.0529 | 0.058 | 0.0653 | 0.0715 | 0.0789 | 0.0892 | 0.0911 | 0.0979 | 0.108
in n-butyl acetate | 0.00136 | 0.00179 | 0.00214 | 0.00252 | 0.003 | 0.00351 | 0.00388 | 0.00413 | 0.00435
in n-propyl acetate | 0.00163 | 0.00185 | 0.00232 | 0.00261 | 0.00289 | 0.00366 | 0.0041 | 0.00509 | 0.00537
in sec-butanol | 0.08 | 0.0885 | 0.0967 | 0.103 | 0.113 | 0.125 | 0.137 | 0.146 | 0.159
in water | 0.00875 | 0.00935 | 0.0115 | 0.0154 | 0.021 | 0.0292 | 0.0459 | 0.0726 | 0.106
